For test [1], the system named is MDA-MB-453 cells. Kind of test: Inhibition of proliferation of MDA-MB-453 cells (CCK-8 or CTG, 7-10 days). It is filed as cell-based. How it is done:
Triple negative breast cancer MDA-MB-453 cells in logarithmic growth stage were inoculated into a 96-well plate at a concentration of 4×10^3 cells/well, and then incubated in an incubator at 37° C., 5% CO2, and saturated humidity for 24 h or 48 h. To the negative control well, was added RPMI 1640 cell medium containing 10% fetal bovine serum in the same volume as the drug. After cultured for 24 h or 48 h, to the 96-well plate, were added AR PROTACs compounds 162, 177, 230, 259, 279, 281, 282, 325, 357, 400, ARV-110, ARV-766 and AR inhibitor HC-1119, respectively. The concentrations of compounds 177, 230, 259, 279, 281, 282, 325, 357, 400, ARV-110, and ARV-766 are 0 μM, 0.002 μM, 0.005 μM, 0.014 μM, 0.041 μM, 0.123 μM, 0.370 μM, 1.111 μM, 3.333 μM or 10 μM; while the concentrations of HC-1119 are 0 μM, 1.23 μM, 3.70 μM, 11.11 μM, 33.33 μM or 100 μM.
After addition of the drugs and co-incubation for 7-10 days, 10 μL of CCK-8 was added to each well, and then the plate was further cultured for 2 h. The absorbance value (OD) of each well was measured using a microplate reader at a wavelength of 450 nm. The survival rate was calculated using Prism software, the relative survival rate=(OD value of drug well/OD value of control well)×100%. Alternatively, 100 μL of medium was removed from each well, and then 50 μL of CTG was added. The plate was shaken in the dark for 2 min, allowed to stand for 10 min, and then measured using a microplate reader in Luminescence mode. Prism software was used to calculate the survival rate, the relative survival rate=(the RLU value of drug well/the RLU value of control well)×100%.

Test [2] concerns AR+ TNBC cells (MDA-MB-453, SUM159PT and MFM-223) and AR- TNBC (MDA-MB-468 and HCC1937). Description: Antiproliferation in AR positive and negative TNBC cells (summary over the cell line panel). It is filed as cell-based. The conditions noted are these: MDA-MB-453, SUM159PT, MFM-223, MDA-MB-468, HCC1937. How it is done:
For MDA-MB-453, MFM-223, SUM159PT, MDA-MB-468, and HCC1937, 4,000, 3,000, 1,000, 3,000, and 3,000 cells were plated per well in 96-well microplates (Corning Inc), respectively. Cells were treated with serial dilutions of tested compounds with the maximum working concentration of 10 μM. Cell survival was measured 5 days later using a CellTiter-Glo luminescent cell viability assay kit (Promega Corporation). Luminescence was recorded by FLUOstar Omega microplate reader (BMG Labtech). Half maximal inhibitory concentration (IC50) was determined with GraphPad Prism using baseline correction (by normalizing to dimethyl sulfoxide (DMSO) control)

With `[2H]C([2H])([2H])NC(=O)c1ccc(N2C(=S)N(c3ccc(C#N)c(C(F)(F)F)c3)C(=O)C2(C)C)cc1F` [HC-1119], the “inhibitory effect on the proliferation of MDA-MB-453 cells” value in test [1] is “weak inhibitory effect”. In addition, the “anti-proliferation activity in all five cell lines” value in test [2] was “failed to show anti-proliferation activity”.

Values taken from patent publication US20250082763A1, “COMBINATION DRUG FOR TREATING TRIPLE-NEGATIVE BREAST CANCER” (HINOVA PHARMACEUTICALS INC., priority 2022, published 2025).
